The values below come from patent publication USRE30241E, “Esters of 3-(hydroxy or hydroxymethyl)-4-hydroxyphenyl aminomethyl ketones” (Sterling Drug Inc., priority 1970, dated 1980).

Series [1] in a line: Solubility and pH of salts.
Series [2] deals with carbachol- or histamine-induced bronchoconstriction. In words: Bronchodilator Test Method I, anesthetized dog, intravenous activity. Format: in vivo. The settings on record: Canis lupus familiaris, read-out: Bronchodilatation; for inhibition in vivo at 0.0056 mg/kg: 5.6 mcg/kg i.v.; for inhibition in vivo at 0.0112 mg/kg: 11.2 mcg/kg i.v.; for inhibition in vivo at 0.112 mg/kg: 112.0 mcg/kg i.v.; for inhibition in vivo at 0.0224 mg/kg: 22.4 mcg/kg i.v.; for inhibition in vivo at 0.0012 mg/kg: 1.2 mcg/kg i.v.; for inhibition in vivo at 0.003 mg/kg: 3.0 mcg/kg i.v.; for inhibition in vivo at 0.0055 mg/kg: 5.5 mcg/kg i.v.; for inhibition in vivo at 0.0285 mg/kg: 28.5 mcg/kg i.v.; for inhibition in vivo at 0.114 mg/kg: 114 mcg/kg i.v.; for inhibition in vivo at 0.228 mg/kg: 228 mcg/kg i.v. A digest of the protocol: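 Pentobarbital-anesthetized (30 mg/kg i.v.), open-chest, artificially ventilated dogs were given i.v. carbachol (4-6 µg/kg) or histamine diphosphate (35-45 µg/kg). Test compound was given i.v. mixed with, after, or 1-10 min before the constrictor.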

In series [3] the test system is guinea pig bronchioles constricted by carbachol. In words: Bronchodilator Test Method II, in vitro perfused guinea pig lung. The following applies: for ED50: carbachol (Doryl) 1:5 million. Here is the method:
In this method bronchodilator activity in vitro was determined by testing the effect of graded doses of the test compounds on guinea pig bronchioles constricted by carbachol, using the technique reported by Sollman and von Oettingen, Proc. Soc, Exp. Biol. Med., 25,692 (1928) as modified by Tainter, Pedden, and James, J. Pharm. Exp. Ther., 51, 371 (1934) and by Luduena, von Euler, Tullar, and Lands, Arch. intern. Pharmacol., III, 392 (1957).

Read-outs that look alike come from different tables or passages of the source.

As usually defined, the solubility is the dissolved amount per volume that the medium holds. For the molecule `CC(C)(C)NCC(O)c1ccc(OC(=O)C(C)(C)C)c(OC(=O)C(C)(C)C)c1.Cl` (stereo not drawn) [Example 5, 3,4-bis(pivalyloxy)-alpha-(tert-butylaminomethyl)benzyl alcohol hydrochloride], the solubility in series [1] (water) is at least 50 mg/mL. The inhibition in vivo at 0.0028 mg/kg in series [2] (5 min, 2.8 mcg/kg i.v., 5 min) came to 14%. In addition, the inhibition in vivo at 0.0056 mg/kg was 53% in series [2] (5 min, 5 min); 27% in series [2] (0.5 h, 30 min); 26% in series [2] (1 h, 60 min). Also, the inhibition in vivo at 0.0112 mg/kg in series [2] (5 min, 5 min) came out at 57%; in series [2] (0.5 h, 30 min) it was 30%; in series [2] (1 h, 60 min), 4%. Also, the inhibition in vivo at 0.112 mg/kg in series [2] (5 min, 5 min) came to 100%; in series [2] (0.5 h, 30 min), 92%; in series [2] (1 h, 60 min), 59%; in series [2] (2 h, 120 min), 13%. In addition, the inhibition in vivo at 0.0224 mg/kg in series [2] (0.5 h, 30 min) is 81%; in series [2] (1 h, 60 min), 62%; in series [2] (2 h, 120 min), 62%; in series [2] (3 h, 180 min) it was 15%; in series [2] (4 h, 240 min), 0%. Also, the ED50 in series [3] (hydrochloride) was 0.94 µg (base). The “Duration, Mean” value in series [3] (dose 2 mcg (base)) came to 18 ± 4.2 min.
As to `CC(C)(C)NCC(O)c1ccc(OC(=O)C2CCCCC2)c(OC(=O)C2CCCCC2)c1.Cl` (stereo not drawn) [Example 15, 3,4-bis(cyclohexanecarbonyloxy)-alpha-(tert-butylaminomethyl)benzyl alcohol hydrochloride], the “precipitation on dilution with three volumes of water” value in series [1] (1 percent solution in dimethyl sulfoxide) is recorded as “no precipitate formed”. The solubility in series [1] (polyethyleneglycol, organic solvent or mixture) is below 1 mg/mL; in series [1] (water), below 1 mg/mL. The inhibition in vivo at 0.0012 mg/kg was 20% in series [2] (2 min, 2 min); 27% in series [2] (0.5 h, 30 min); 8% in series [2] (1 h, 60 min); 0% in series [2] (2 h, 120 min). In addition, the inhibition in vivo at 0.003 mg/kg in series [2] (2 min, 2 min) was 36%; in series [2] (1 h, 60 min), 31%; in series [2] (2 h, 120 min), 26%; in series [2] (3 h, 180 min), 20%. Besides, in series [3], the ED50 was 1.3 µg (base). The “Duration, Mean” value in series [3] (dose 3.2 mcg (base)) is 53 ± 7 min.
On to `CC(C)CC(=O)Oc1ccc(C(O)CNC(C)(C)C)cc1OC(=O)CC(C)C.Cl` (stereo not drawn) [Example 3, 3,4-bis(isovaleryloxy)-alpha-(tert-butylaminomethyl)-benzyl alcohol hydrochloride], for which the “pH of a 1 percent aqueous solution” value in series [1] (1 percent aqueous solution of the salt) came out at 5.4. Moreover, the “precipitation on raising pH to 7.0” value in series [1] (1 percent aqueous solution, N/10 sodium hydroxide to pH 7.0) was “a precipitate formed”. Also, the solubility in series [1] (water) is at least 200 mg/mL. For the same molecule, in series [2] (1 min, 0.55 mcg/kg i.v., 1-2 min), the inhibition in vivo at 0.00055 mg/kg was 32%. In addition, the inhibition in vivo at 0.0011 mg/kg in series [2] (1 min, 1.1 mcg/kg i.v., 1-2 min) was determined as 54%. Besides, in series [2] (1 min, 2.2 mcg/kg i.v., 1-2 min), the inhibition in vivo at 0.0022 mg/kg was found to be 74%. In series [3], the ED50 was 0.6 µg (base). Also, the “Duration, Mean” value in series [3] (dose 1.2 mcg (base)) was 18 ± 4 min.
`CCC(C)C(=O)Oc1ccc(C(O)CNC(C)(C)C)cc1OC(=O)C(C)CC.Cl` (stereo not drawn) [Example 4, 3,4-bis(2-methylbutanoyloxy)-alpha-(tert-butylaminomethyl)benzyl alcohol hydrochloride]: in series [1] (water), the solubility was at least 50 mg/mL. Further, the inhibition in vivo at 0.0055 mg/kg in series [2] (2 min, 2 min) amounted to 48%; in series [2] (0.5 h, 30 min), 5%; in series [2] (1 h, 60 min), 0%. Also, the ED50 in series [3] is 0.45 µg (base). In addition, the “Duration, Mean” value in series [3] (dose 1 mcg (base)) came to 20 ± 3 min.
Turning to `CC(C)(C)CC(=O)Oc1ccc(C(O)CNC(C)(C)C)cc1OC(=O)CC(C)(C)C.Cl` (stereo not drawn) [Example 7, 3,4-bis(3,3-dimethylbutanoyloxy)-alpha-(tert-butylaminomethyl)benzyl alcohol hydrochloride], the solubility in series [1] (water) is at least 10 mg/mL. Further, the inhibition in vivo at 0.0285 mg/kg in series [2] (5 min, 5 min) came to 28%; in series [2] (0.5 h, 30 min), 32%; in series [2] (1 h, 60 min) it was 24%; in series [2] (2 h, 120 min), 24%; in series [2] (3 h, 180 min), 22%; in series [2] (4 h, 240 min), 23%. Moreover, the inhibition in vivo at 0.114 mg/kg in series [2] (5 min, 5 min) worked out at 52%; in series [2] (0.5 h, 30 min), 42%; in series [2] (1 h, 60 min) it was 33%; in series [2] (2 h, 120 min) it was 25%; in series [2] (3 h, 180 min) it was 19%. Also, the inhibition in vivo at 0.228 mg/kg in series [2] (5 min, 5 min) worked out at 98%; in series [2] (0.5 h, 30 min) it was 77%; in series [2] (1 h, 60 min), 68%; in series [2] (2 h, 120 min), 56%; in series [2] (3 h, 180 min) it was 50%; in series [2] (4 h, 240 min) it was 44%. Further, in series [3], the ED50 was 23 µg (base). For the same molecule, the “Duration, Mean” value in series [3] (dose 32 mcg (base)) was determined as 85 ± 17 min.
With `CCC(C)CC(=O)Oc1ccc(C(O)CNC(C)(C)C)cc1OC(=O)CC(C)CC.Cl` (stereo not drawn) [Example 6, 3,4-bis(3-methylpentanoyloxy)-alpha-(tert-butylaminomethyl)benzyl alcohol hydrochloride], the solubility in series [1] (water) is at least 50 mg/mL. Further, the ED50 in series [3] is 1.3 µg (base). Also, the “Duration, Mean” value in series [3] (dose 3.2 mcg (base)) was 43 ± 3.7 min.
